Experimental data reported in patent US20240368135A1 (VERTEX PHARMACEUTICALS INCORPORATED, priority 2021, published 2024).

The molecules below were run against human NaV 1.8 (Homo sapiens, UniProt Q9Y5Y9) (assay: E-VIPR assay detecting and measuring NaV inhibition properties). Details: HEK cells expressing truncated human NaV 1.8; no human serum; read-out: IC50 in the E-VIPR Assay.
Assay type: cell-based
Outline: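 HEK cells expressing truncated, fully active human NaV1.8, with KIR2.1 BacMam co-transduction, were loaded with CC2-DMPE/DiSBAC6(3) voltage-sensing dyes for 20 min at room temperature. Compounds were tested in 11-point 3-fold dilutions (300 nM top final), optionally with 25% human serum, under electrical stimulation with FRET read-out.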

human NaV 1.8, sequence (Q9Y5Y9 126-399 limits assumed): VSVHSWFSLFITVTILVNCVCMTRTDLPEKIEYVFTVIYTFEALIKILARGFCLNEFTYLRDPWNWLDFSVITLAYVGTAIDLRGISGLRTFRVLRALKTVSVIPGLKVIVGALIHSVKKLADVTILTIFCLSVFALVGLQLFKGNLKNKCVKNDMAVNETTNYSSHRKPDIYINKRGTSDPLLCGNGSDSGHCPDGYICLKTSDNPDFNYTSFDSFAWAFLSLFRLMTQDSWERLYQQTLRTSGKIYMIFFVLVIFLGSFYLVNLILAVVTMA
human NaV 1.8, sequence (Q9Y5Y9 660-890 limits assumed): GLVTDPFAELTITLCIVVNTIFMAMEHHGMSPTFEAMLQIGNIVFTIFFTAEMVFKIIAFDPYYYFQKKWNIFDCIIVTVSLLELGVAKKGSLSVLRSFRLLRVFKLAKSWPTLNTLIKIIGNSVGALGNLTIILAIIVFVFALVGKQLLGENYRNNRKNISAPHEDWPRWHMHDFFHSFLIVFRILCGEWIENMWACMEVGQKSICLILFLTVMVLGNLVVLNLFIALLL
human NaV 1.8, sequence (Q9Y5Y9 1148-1722 limits assumed): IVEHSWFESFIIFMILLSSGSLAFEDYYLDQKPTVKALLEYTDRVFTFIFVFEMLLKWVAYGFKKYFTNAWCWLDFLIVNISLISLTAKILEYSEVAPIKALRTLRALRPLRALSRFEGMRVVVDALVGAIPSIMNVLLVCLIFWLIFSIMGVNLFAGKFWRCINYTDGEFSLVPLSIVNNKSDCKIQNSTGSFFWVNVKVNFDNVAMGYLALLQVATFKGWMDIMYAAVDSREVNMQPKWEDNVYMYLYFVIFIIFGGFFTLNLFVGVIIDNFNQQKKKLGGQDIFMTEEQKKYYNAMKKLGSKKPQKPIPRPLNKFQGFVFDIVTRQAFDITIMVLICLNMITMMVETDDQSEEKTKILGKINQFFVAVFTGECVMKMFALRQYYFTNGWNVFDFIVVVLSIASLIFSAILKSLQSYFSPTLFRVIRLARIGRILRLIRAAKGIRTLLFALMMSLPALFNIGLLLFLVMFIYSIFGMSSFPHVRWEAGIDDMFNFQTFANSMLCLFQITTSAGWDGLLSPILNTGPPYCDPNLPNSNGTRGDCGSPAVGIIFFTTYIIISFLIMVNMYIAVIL

SMILES | IC50 [nM]
COc1c([C@H]2[C@H](C(=O)Nc3ccnc(N4C(=O)CNC[C@@H]4C)c3)O[C@@](C)(C(F)(F)F)[C@H]2C)ccc(F)c1F [Compound 479, (2R,3S,4S,5R)-3-(3,4-difluoro-2-methoxyphenyl)-4,5-dimethyl-N-(2-((S)-2-methyl-6-oxopiperazin-1-yl)pyridin-4-yl)-5-(trifluoromethyl)tetrahydrofuran-2-carboxamide] | 10 to 100
COc1c([C@H]2[C@H](C(=O)Nc3ccnc(N4CCCNCC4=O)c3)O[C@@](C)(C(F)(F)F)[C@H]2C)ccc(F)c1F [Compound 481, (2R,3S,4S,5R)-3-(3,4-difluoro-2-methoxyphenyl)-4,5-dimethyl-N-(2-(2-oxo-1,4-diazepan-1-yl)pyridin-4-yl)-5-(trifluoromethyl)tetrahydrofuran-2-carboxamide] | 10 to 100
COc1c([C@H]2[C@H](C(=O)Nc3ccnc(N4C(=O)[C@H]5C[C@@H]4CN5)c3)O[C@@](C)(C(F)(F)F)[C@H]2C)ccc(F)c1F [Compound 482, (2R,3S,4S,5R)-3-(3,4-difluoro-2-methoxyphenyl)-4,5-dimethyl-N-(2-((1R,4R)-3-oxo-2,5-diazabicyclo[2.2.1]heptan-2-yl)pyridin-4-yl)-5-(trifluoromethyl)tetrahydrofuran-2-carboxamide] | 10 to 100
COc1c([C@H]2[C@H](C(=O)Nc3ccnc(N4C(=O)[C@@H]5C[C@H]4CN5)c3)O[C@@](C)(C(F)(F)F)[C@H]2C)ccc(F)c1F [Compound 483, (2R,3S,4S,5R)-3-(3,4-difluoro-2-methoxyphenyl)-4,5-dimethyl-N-(2-((1S,4S)-3-oxo-2,5-diazabicyclo[2.2.1]heptan-2-yl)pyridin-4-yl)-5-(trifluoromethyl)tetrahydrofuran-2-carboxamide] | 10 to 100
COc1c([C@H]2[C@H](C(=O)Nc3ccnc(N4CCN[C@H](C)C4=O)c3)O[C@@](C)(C(F)(F)F)[C@H]2C)ccc(F)c1F [Compound 484, (2R,3S,4S,5R)-3-(3,4-difluoro-2-methoxyphenyl)-4,5-dimethyl-N-(2-((R)-3-methyl-2-oxopiperazin-1-yl)pyridin-4-yl)-5-(trifluoromethyl)tetrahydrofuran-2-carboxamide] | 10 to 100
CNCC(=O)Nc1cc(NC(=O)[C@@H]2O[C@@](C)(C(F)(F)F)[C@@H](C)[C@H]2c2ccc(F)c(F)c2OC)ccn1 [Compound 488] | 10 to 100
COc1c([C@H]2[C@H](C(=O)Nc3ccnc(N4C(=O)[C@@H]5C[C@H]4CN5C)c3)O[C@@](C)(C(F)(F)F)[C@H]2C)ccc(F)c1F [Compound 489, (2R,3S,4S,5R)-3-(3,4-difluoro-2-methoxyphenyl)-4,5-dimethyl-N-(2-((1S,4S)-5-methyl-3-oxo-2,5-diazabicyclo[2.2.1]heptan-2-yl)pyridin-4-yl)-5-(trifluoromethyl)tetrahydrofuran-2-carboxamide] | 10 to 100
COc1c([C@H]2[C@H](C(=O)Nc3ccnc(N4C(=O)[C@H]5C[C@@H]4CN5C)c3)O[C@@](C)(C(F)(F)F)[C@H]2C)ccc(F)c1F [Compound 490, (2R,3S,4S,5R)-3-(3,4-difluoro-2-methoxyphenyl)-4,5-dimethyl-N-(2-((1R,4R)-5-methyl-3-oxo-2,5-diazabicyclo[2.2.1]heptan-2-yl)pyridin-4-yl)-5-(trifluoromethyl)tetrahydrofuran-2-carboxamide] | 10 to 100
COc1c([C@H]2[C@H](C(=O)Nc3cc(N4C(=O)CN(C)C[C@H]4C)ncn3)O[C@@](C)(C(F)(F)F)[C@H]2C)ccc(F)c1F [Compound 513] | 10 to 100
C[C@H]1[C@@H](c2ccc(F)c(F)c2OC(F)F)[C@H](C(=O)Nc2ccnc(N3CCNCC3=O)c2)O[C@@]1(C)C(F)(F)F [Compound 514, (2R,3S,4S,5R)-3-(2-(difluoromethoxy)-3,4-difluorophenyl)-4,5-dimethyl-N-(2-(2-oxopiperazin-1-yl)pyridin-4-yl)-5-(trifluoromethyl)tetrahydrofuran-2-carboxamide] | 10 to 100
[2H]C([2H])([2H])Oc1c([C@H]2[C@H](C(=O)Nc3ccnc(N4CCNCC4=O)c3)O[C@@](C)(C(F)(F)F)[C@H]2C)ccc(F)c1F [Compound 515, (2R,3S,4S,5R)-3-[3,4-difluoro-2-(trideuteriomethoxy)phenyl]-4,5-dimethyl-N-[2-(2-oxopiperazin-1-yl)-4-pyridyl]-5-(trifluoromethyl)tetrahydrofuran-2-carboxamide] | 10 to 100
C[C@H]1[C@@H](c2ccc(F)c(F)c2OC(F)F)[C@H](C(=O)Nc2ccnc(N3CCN(C)CC3=O)c2)O[C@@]1(C)C(F)(F)F [Compound 516, (2R,3S,4S,5R)-3-[2-(difluoromethoxy)-3,4-difluoro-phenyl]-4,5-dimethyl-N-[2-(4-methyl-2-oxo-piperazin-1-yl)-4-pyridyl]-5-(trifluoromethyl)tetrahydrofuran-2-carboxamide] | < 10

Next, values leading:

IC50 [nM] | SMILES
< 10 | COc1c([C@H]2[C@H](C(=O)Nc3ccnc(N4C[C@@H](C)NCC4=O)c3)O[C@@](C)(C(F)(F)F)[C@H]2C)ccc(F)c1F [Compound 480, (2R,3S,4S,5R)-3-(3,4-difluoro-2-methoxyphenyl)-4,5-dimethyl-N-(2-((R)-5-methyl-2-oxopiperazin-1-yl)pyridin-4-yl)-5-(trifluoromethyl)tetrahydrofuran-2-carboxamide]
< 10 | COc1c([C@H]2[C@H](C(=O)Nc3ccnc(N4CCN[C@@H](C)C4=O)c3)O[C@@](C)(C(F)(F)F)[C@H]2C)ccc(F)c1F [Compound 485, (2R,3S,4S,5R)-3-(3,4-difluoro-2-methoxyphenyl)-4,5-dimethyl-N-(2-((S)-3-methyl-2-oxopiperazin-1-yl)pyridin-4-yl)-5-(trifluoromethyl)tetrahydrofuran-2-carboxamide]
< 10 | CNCC(=O)N(C)c1cc(NC(=O)[C@@H]2O[C@@](C)(C(F)(F)F)[C@@H](C)[C@H]2c2ccc(F)c(F)c2OC)ccn1 [Compound 486, (2R,3S,4S,5R)-3-(3,4-difluoro-2-methoxyphenyl)-4,5-dimethyl-N-(2-(N-methyl-2-(methylamino)acetamido)pyridin-4-yl)-5-(trifluoromethyl)tetrahydrofuran-2-carboxamide]
< 10 | CNC(=O)CN(C)c1cc(NC(=O)[C@@H]2O[C@@](C)(C(F)(F)F)[C@@H](C)[C@H]2c2ccc(F)c(F)c2OC)ccn1 [Compound 487, (2R,3S,4S,5R)-3-(3,4-difluoro-2-methoxyphenyl)-4,5-dimethyl-N-(2-(methyl(2-(methylamino)-2-oxoethyl)amino)pyridin-4-yl)-5-(trifluoromethyl)tetrahydrofuran-2-carboxamide]
< 10 | COc1c([C@H]2[C@H](C(=O)Nc3ccnc(N4C(=O)CN(C)C[C@@H]4CO)c3)O[C@@](C)(C(F)(F)F)[C@H]2C)ccc(F)c1F [Compound 511, (2R,3S,4S,5R)-3-(3,4-difluoro-2-methoxyphenyl)-N-(2-((R)-2-(hydroxymethyl)-4-methyl-6-oxopiperazin-1-yl)pyridin-4-yl)-4,5-dimethyl-5-(trifluoromethyl)tetrahydrofuran-2-carboxamide]
< 10 | COc1c([C@H]2[C@H](C(=O)Nc3ccnc(N4C(=O)CN(C)C[C@H]4CO)c3)O[C@@](C)(C(F)(F)F)[C@H]2C)ccc(F)c1F [Compound 512, (2R,3S,4S,5R)-3-(3,4-difluoro-2-methoxyphenyl)-N-(2-((S)-2-(hydroxymethyl)-4-methyl-6-oxopiperazin-1-yl)pyridin-4-yl)-4,5-dimethyl-5-(trifluoromethyl)tetrahydrofuran-2-carboxamide]
